Assay results published in patent publication US7655677B2, “Composition and method for controlling house insect pest” (priority 2002, dated 2010).

Key:
Format in all cases: in vivo
Reticulitermes speratus [1] = assay: Test Example 3: treated filter paper in Petri dish, termite mortality after 37 days
Protocol: Mortality (%)=(Number of dead termite workers/15 termite workers)×100
Further, by the Colby's formula, the theoretical value (%) of mortality can be calculated. In a case where the actual mortality (%) is higher than the theoretical value (%), it can be said that the composition of the present invention has a synergistic effect for controlling the house insect pest.
A filter paper having a diameter of 80 mm was placed in a plastic Petri dish, and 1 ml of a pesticide solution having a predetermined concentration, was dropped thereon. After the treatment, the solvent was sufficiently evaporated, and then, 1 ml of distilled water was impregnated to the treated filter paper, whereupon 10 termite workers (Reticulitermes speratus) were released. The plastic Petri dish was placed in a container having wet cotton laid over the bottom, and the container was maintained at 25° C. for 37 days, whereupon the number of dead termites in the Petri dish was examined, and the mortality was calculated in the same manner as in Test Example 1.

Coptotermes formosanus [2] = assay: Test Example 14: Japanese red pine poison bait, spread from bait-treated to non-treated termites; details: for Mortality TS (Termite soldiers): 5 non-treated soldiers; for Mortality TW (Termite workers): 5 treated + 5 non-treated workers
Protocol: A Japanese red pine poison bait chemical prepared in the same manner as in Test Example 13, was placed in a cylindrical cup made of acrylic resin (i.e. a cup having a hole with a diameter of 10 mm formed in the bottom and having hard plaster (Dental Stone) set at the bottom in a thickness of 10 mm), and 5 termite workers (Coptotermes formosanus) starved for 3 days, were released and permitted to ingest for 48 hours. Such bait-treated 5 alive termite workers were transferred together with non-treated 5 termite workers and 5 termite soldiers to a cup wherein a filter paper containing water was placed, and they were kept at room temperature of 25° C., whereby the number of dead termite workers and soldiers was examined as the time passed, and the mortality was calculated by the following formula.
Mortality of workers (%)=(number of dead termite workers/treated 5 termite workers+non-treated 5 termite workers)×100
Mortality of soldiers (%) (number of dead termite soldiers/non-treated 5 termite soldiers)×100

Reticulitermes speratus [3] = assay: Test Example 16: pulp (KIMUTAORU) poison bait, termite mortality after 18 days; details: pulp (KIMUTAORU) bait 0.1%
Excerpt: Fresh pulp (2 cm×2 cm×0.1 cm) was immersed in a methanol solution of a sample compound. Then, it was dried to obtain a fresh pulp poison bait chemical containing 0.1% of the sample compound. This poison bait chemical was placed in a cylindrical cup made of acrylic resin (i.e. a cup having a hole with a diameter of 10 mm formed in the bottom and having hard plaster (Dental Stone) set at the bottom in a thickness of 10 mm), and 20 termite workers (Reticulitermes speratus) were released thereon. The cup was placed in a container having wet cotton laid over the bottom, and the container was maintained at room temperature of 25° C. for 18 days, whereupon the number of dead termites in the cup was examined, and the mortality was calculated.
A test was carried out in the same manner as the above Test Example 15 except that fresh pulp was changed to pulp (KIMUTAORU, tradename, manufactured by CRECIA Co.).

Coptotermes formosanus [4] = assay: Test Example 19: gel coated on Japanese red pine wood block, termite mortality with time
Excerpt: A gel prepared by uniformity mixing 0.2 part by weight of […], 20 parts by weight of sorbitol, 3.5 parts by weight of cross-linked product of a starch/sodium acrylate copolymer, a predetermined amount of a sample compound and a predetermined amount of water, was coated in an amount of 110 g/m^2 on a dried rectangular parallelpiped wood block of Japanese red pine of 20 mm (L)×10 mm (R)×10 mm (T). This test specimen was put into a cylindrical cup made of acrylic resin (i.e. a cup having a hole with a diameter of 10 mm in the bottom and having hard plaster (Dental Stone) set at the bottom in a thickness of 10 mm), and 20 termite workers (Coptotermes formosanus) were released thereon. The cup was placed in a container having wet cotton laid over the bottom, and the container was maintained at room temperature of 25° C., whereby the number of dead termites in the cup was examined as the time passed, and the mortality was calculated.

Coptotermes formosanus [5] = assay: Test Example 20: treated sandy soil, termite mortality and abnormal ratio with time
Protocol: Sandy soil passed through a sieve of 20 mesh, was dried at a temperature of 60° C. to a constant weight, and 4 g of the soil thus obtained, was packed into a cup having a diameter of 60 mm. 1 ml of a pesticide solution adjusted to a predetermined concentration was added and thoroughly mixed, whereupon 15 termite workers (Coptotermes formosanus) were leased. The cup was placed in a container having wet cotton laid over the bottom, and the container was maintained at room temperature of 25° C., whereby the number of dead termites in the cup was examined as the time passed, and the mortality was calculated.

[6] = 1000 ppm solution, 4 Days later

In the case of `CC(=NN=C(Cc1ccc(C(F)(F)F)cc1)c1ccc(F)cc1)N(C)C` [Compound No. II-2, [4′-fluoro-2-(4-trifluoromethylphenyl)acetophenone]N′-[1-(dimethylamino)ethylidene]hydrazone], the Mortality (Reticulitermes speratus [1]; II-2 5 ppm alone) is reported as 10%, the Mortality (Reticulitermes speratus [1]; II-2 10 ppm alone) is reported as 20% and the “Mortality TS (Termite soldiers)” value (Coptotermes formosanus [2]; bait 0.05%, 6 Days later) is reported as 0%. The “Mortality TW (Termite workers)” value (Coptotermes formosanus [2]; bait 0.05%, 6 Days later) was 30%, the “Mortality TS (Termite soldiers)” value (Coptotermes formosanus [2]; bait 0.05%, 8 Days later) was 0% and the “Mortality TW (Termite workers)” value (Coptotermes formosanus [2]; bait 0.05%, 8 Days later) was 30%. For the same molecule, the “Mortality TS (Termite soldiers)” value (Coptotermes formosanus [2]; bait 0.05%, 15 Days later) was 40%, the “Mortality TW (Termite workers)” value (Coptotermes formosanus [2]; bait 0.05%, 15 Days later) was 70% and the “Mortality TS (Termite soldiers)” value (Coptotermes formosanus [2]; bait 0.1%, 6 Days later) was 0%. The “Mortality TW (Termite workers)” value (Coptotermes formosanus [2]; bait 0.1%, 6 Days later) was 50%, the “Mortality TS (Termite soldiers)” value (Coptotermes formosanus [2]; bait 0.1%, 8 Days later) was 20% and the “Mortality TW (Termite workers)” value (Coptotermes formosanus [2]; bait 0.1%, 8 Days later) was 60%. The “Mortality TS (Termite soldiers)” value (Coptotermes formosanus [2]; bait 0.1%, 15 Days later) was 100%, the “Mortality TW (Termite workers)” value (Coptotermes formosanus [2]; bait 0.1%, 15 Days later) was 100% and the Mortality (Reticulitermes speratus [3]) was 100%. It also gave a Mortality (Coptotermes formosanus [4]; gel 0.005%, 2 Days later) of 0%, a Mortality (Coptotermes formosanus [4]; gel 0.005%, 6 Days later) of 0% and a Mortality (Coptotermes formosanus [4]; gel 0.005%, 12 Days later) of 10%. It also gave a Mortality (Coptotermes formosanus [4]; gel 0.005%, 23 Days later) of 30%, a Mortality (Coptotermes formosanus [4]; gel 0.005%, 34 Days later) of 60% and a Mortality (Coptotermes formosanus [4]; gel 0.01%, 2 Days later) of 0%. For the same molecule, the Mortality (Coptotermes formosanus [4]; gel 0.01%, 6 Days later) was 0%, the Mortality (Coptotermes formosanus [4]; gel 0.01%, 12 Days later) was 10% and the Mortality (Coptotermes formosanus [4]; gel 0.01%, 23 Days later) was 60%. It also gave a Mortality (Coptotermes formosanus [4]; gel 0.01%, 34 Days later) of 100%, a Mortality (Coptotermes formosanus [4]; gel 0.05%, 2 Days later) of 0% and a Mortality (Coptotermes formosanus [4]; gel 0.05%, 6 Days later) of 0%. It also gave a Mortality (Coptotermes formosanus [4]; gel 0.05%, 12 Days later) of 100%, a Mortality (Coptotermes formosanus [4]; gel 0.05%, 23 Days later) of 100% and a Mortality (Coptotermes formosanus [4]; gel 0.05%, 34 Days later) of 100%. It also gave a Mortality (Coptotermes formosanus [4]; gel 0.1%, 2 Days later) of 0%, a Mortality (Coptotermes formosanus [4]; gel 0.1%, 6 Days later) of 60% and a Mortality (Coptotermes formosanus [4]; gel 0.1%, 12 Days later) of 100%. It also gave a Mortality (Coptotermes formosanus [4]; gel 0.1%, 23 Days later) of 100%, a Mortality (Coptotermes formosanus [4]; gel 0.1%, 34 Days later) of 100% and a Mortality (Coptotermes formosanus [5]; 250 ppm solution, 1 Day later) of 0%. The Mortality (Coptotermes formosanus [5]; 250 ppm solution, 4 Days later) was 0%, the abnormal ratio (Coptotermes formosanus [5]; 250 ppm solution, 4 Days later) was 7% and the Mortality (Coptotermes formosanus [5]; 250 ppm solution, 11 Days later) was 100%. It also gave a Mortality (Coptotermes formosanus [5]; 1000 ppm solution, 1 Day later) of 0%, a Mortality (Coptotermes formosanus [5]; [6]) of 73% and an abnormal ratio (Coptotermes formosanus [5]; [6]) of 27%. For the same molecule, the Mortality (Coptotermes formosanus [5]; 1000 ppm solution, 11 Days later) was 100%, the Mortality (Coptotermes formosanus [5]; 4000 ppm solution, 1 Day later) was 0% and the abnormal ratio (Coptotermes formosanus [5]; 4000 ppm solution, 1 Day later) was 100%. It also gave a Mortality (Coptotermes formosanus [5]; 4000 ppm solution, 4 Days later) of 100% and a Mortality (Coptotermes formosanus [5]; 4000 ppm solution, 11 Days later) of 100%.
